Test results as given in patent publication US20090306386A1, “Plant Extract Obtained by an Extraction Method by Means of Solvents of Plant Origin” (priority 2005, published 2009).

Test system: xanthine/xanthine oxidase
Assay: antioxidant activity, xanthine/xanthine oxidase test
Assay type: biochemical
Settings: modified method of Rice Evans et al. and Masaki et al., n=10
Source text: The antioxidant activity of the turmeric extract obtained with solvent No. 2 (d-limonene) were studied using the xanthine/xanthine oxidase test according to the modified method of Rice Evans et al. (Techniques in free radical research, 1991, Elsevier, Paris) and Masaki et al. (Antioxygen scavenging activity of plant extracts, Biol. Pharm. Bull., 1995, 18 (1), 162-166).

Oc1ncnc2[nH]ncc12 [allopurinol]
antioxidant activity IC50: 0.06%
